The source made the active and inactive calls. The rule behind the calls is not given here.
Key:
MDA-MB-231 [1] = assay: Cytotoxicity against human MDA-MB-231 cells assessed as cell survival at 10 uM after 48 hrs by MTT assay relative to control; assay type: functional; settings: MDA-MB-231, 48 h, read-out: Survival
BT-474 [2] = assay: Cytotoxicity against human BT474 cells assessed as cell survival at 10 uM after 48 hrs by MTT assay relative to control; assay type: functional; settings: BT-474, 48 h, read-out: Survival
HCT-116 [3] = assay: Cytotoxicity against human HCT116 cells assessed as cell survival at 10 uM after 48 hrs by MTT assay relative to control; assay type: functional; settings: HCT-116, 48 h, read-out: Survival
Jurkat [4] = assay: Cytotoxicity against human Jurkat cells assessed as cell survival at 10 uM after 48 hrs by MTT assay relative to control; assay type: functional; settings: read-out: Survival
MCF7 [5] = assay: Cytotoxicity against human MCF7 cells assessed as cell survival at 10 uM after 48 hrs by MTT assay relative to control; assay type: functional; settings: MCF7, 48 h, read-out: Survival
MCF7 [6] = assay: Cytotoxicity against human MCF7 cells assessed as reduction in cell survival after 48 hrs by MTT assay; assay type: functional, cell-based; settings: MCF7, 48 h
HCT-116 [7] = assay: Cytotoxicity against human HCT116 cells assessed as reduction in cell survival after 48 hrs by MTT assay; assay type: functional, cell-based; settings: HCT-116, 48 h
Jurkat [8] = assay: Cytotoxicity against human Jurkat cells assessed as reduction in cell survival after 48 hrs by MTT assay; assay type: functional, cell-based
P388 = assay: Cytotoxicity against mouse P388 cells assessed as reduction in cell viability; assay type: functional, cell-based
DU-145 = assay: Cytotoxicity against human DU145 cells assessed as reduction in cell viability; assay type: functional, cell-based
Jurkat [9] = assay: Induction of apoptosis in human Jurkat cells increase in caspase 3/7 activity at 1 uM measured up to 180 mins by fluorescence assay relative to control; assay type: functional
MDA-MB-231 [10] = assay: Cytotoxicity against human MDA-MB-231 cells assessed as reduction in cell survival after 48 hrs by MTT assay; assay type: functional, cell-based; settings: MDA-MB-231, 48 h
BT-474 [11] = assay: Cytotoxicity against human BT474 cells assessed as reduction in cell survival after 48 hrs by MTT assay; assay type: functional, cell-based; settings: BT-474, 48 h
MDA-MB-231 [12] = assay: Cytotoxicity against human MDA-MB-231 cells assessed as reduction in cell viability; assay type: functional, cell-based
A549 = assay: Cytotoxicity against human A549 cells assessed as reduction in cell viability; assay type: functional, cell-based
HCT-8 = assay: Cytotoxicity against human HCT8 cells assessed as reduction in cell viability; assay type: functional, cell-based
HCT-116 [13] = assay: Toxicity in human HCT116 cells at 20 uM after 40 hrs by LDH assay; assay type: cell-based; settings: hct-116, 40 h
[14] = (§1) Inhibition of porcine brain tubulin polymerization incubated for 5 mins by fluorimetry; set-up: species or system Sus scrofa
Sus scrofa [15] = organism: Sus scrofa; assay: as §1
MDA-MB-231 [16] = assay: Toxicity in human MDA-MB-231 cells at 20 uM after 40 hrs by LDH assay; assay type: cell-based; settings: mda-mb-231, 40 h
MCF7 [17] = assay: Cell cycle arrest in human MCF7 cells assessed as G2/M phase accumulation at 3 uM after […] by propidium iodide staining based flow cytometry; assay type: functional
Sus scrofa [18] = organism: Sus scrofa; assay: Inhibition of porcine brain tubulin polymerization at 0.6 uM incubated for 5 mins by fluorimetry
Jurkat [19] = assay: Toxicity in human Jurkat cells at 20 uM after 40 hrs by LDH assay; assay type: cell-based
Capra hircus = organism: Capra hircus; assay: Inhibition of colchicine binding to goat brain tubulin pre-incubated for 20 mins before colchine addition and measured after 45 mins by fluorescence based assay
MCF7 [20] = assay: Toxicity in human MCF7 cells at 20 uM after 40 hrs by LDH assay; assay type: cell-based; settings: mcf7, 40 h
BT-474 [21] = assay: Toxicity in human BT474 cells at 20 uM after 40 hrs by LDH assay; assay type: cell-based; settings: bt-474, 40 h
[22] = target: Receptor tyrosine-protein kinase erbB-2 (Homo sapiens, UniProt P04626); assay: Inhibition of c-erbbeta2 (unknown origin)
[23] = target: Cyclin-dependent kinase 4 (Homo sapiens, UniProt P11802); assay: Inhibition of CDK4 (unknown origin)
Cyclin-dependent kinase 4, sequence (P11802 whole entry): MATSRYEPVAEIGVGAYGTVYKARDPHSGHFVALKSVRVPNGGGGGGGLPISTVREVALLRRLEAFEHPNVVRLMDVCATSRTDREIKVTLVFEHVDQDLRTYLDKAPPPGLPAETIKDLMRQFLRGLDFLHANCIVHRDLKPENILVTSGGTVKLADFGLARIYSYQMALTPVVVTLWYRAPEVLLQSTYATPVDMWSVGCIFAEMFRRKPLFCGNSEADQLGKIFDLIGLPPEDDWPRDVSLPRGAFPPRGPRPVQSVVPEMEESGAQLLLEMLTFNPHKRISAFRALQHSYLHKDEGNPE

Receptor tyrosine-protein kinase erbB-2, sequence (P04626 whole entry): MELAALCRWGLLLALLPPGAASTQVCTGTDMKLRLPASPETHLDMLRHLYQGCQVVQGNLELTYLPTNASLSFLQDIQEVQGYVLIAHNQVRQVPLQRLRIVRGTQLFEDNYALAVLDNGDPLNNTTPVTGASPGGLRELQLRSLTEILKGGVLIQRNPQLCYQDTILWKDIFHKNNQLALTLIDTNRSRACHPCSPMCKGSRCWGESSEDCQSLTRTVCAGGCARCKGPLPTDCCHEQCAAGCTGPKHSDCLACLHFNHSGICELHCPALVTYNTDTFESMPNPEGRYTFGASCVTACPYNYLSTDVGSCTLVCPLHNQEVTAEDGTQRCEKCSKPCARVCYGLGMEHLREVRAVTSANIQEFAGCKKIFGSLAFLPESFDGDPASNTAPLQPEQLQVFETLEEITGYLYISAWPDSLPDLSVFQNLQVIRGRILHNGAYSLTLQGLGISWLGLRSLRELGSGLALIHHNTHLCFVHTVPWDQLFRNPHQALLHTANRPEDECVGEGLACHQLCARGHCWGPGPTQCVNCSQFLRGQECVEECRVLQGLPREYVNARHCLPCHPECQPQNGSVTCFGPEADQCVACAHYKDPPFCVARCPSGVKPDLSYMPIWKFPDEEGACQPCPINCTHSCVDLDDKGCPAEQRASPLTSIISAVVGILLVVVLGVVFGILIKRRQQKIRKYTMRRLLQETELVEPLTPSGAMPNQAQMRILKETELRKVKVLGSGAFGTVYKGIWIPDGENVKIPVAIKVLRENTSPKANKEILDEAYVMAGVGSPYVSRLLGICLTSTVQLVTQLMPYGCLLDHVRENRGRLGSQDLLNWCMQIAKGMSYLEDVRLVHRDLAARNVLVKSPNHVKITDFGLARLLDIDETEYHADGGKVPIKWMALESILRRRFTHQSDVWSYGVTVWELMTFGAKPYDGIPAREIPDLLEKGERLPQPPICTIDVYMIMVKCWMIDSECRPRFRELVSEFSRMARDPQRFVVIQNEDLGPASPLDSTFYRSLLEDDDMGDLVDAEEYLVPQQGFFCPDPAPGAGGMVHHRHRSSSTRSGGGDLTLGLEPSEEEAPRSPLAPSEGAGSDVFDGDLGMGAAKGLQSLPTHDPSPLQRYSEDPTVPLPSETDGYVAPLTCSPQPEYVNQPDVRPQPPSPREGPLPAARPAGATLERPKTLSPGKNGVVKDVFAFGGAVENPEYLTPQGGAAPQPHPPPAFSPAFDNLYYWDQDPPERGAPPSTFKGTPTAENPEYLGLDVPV

## COc1ccc(Cn2cc(/C=N/NC(=O)C(=O)c3c[nH]c4ccc(Br)cc34)c3cc(OC)ccc32)cc1
MDA-MB-231 [1]
  viability at 10 µM: 102%
BT-474 [2]
  viability at 10 µM: 91.1%
HCT-116 [3]
  viability at 10 µM: 65.7%
Jurkat [4]
  viability at 10 µM: 81.9%
MCF7 [5]
  viability at 10 µM: 112%

## COc1ccc2c(/C=N/NC(=O)C(=O)c3c[nH]c4ccccc34)c[nH]c2c1
MCF7 [6]
  IC50: 6100 nM
MDA-MB-231 [1]
  viability at 10 µM: 103%
HCT-116 [7]
  IC50: 2500 nM
BT-474 [2]
  viability at 10 µM: 95.6%
HCT-116 [3]
  viability at 10 µM: 38.8%
Jurkat [8]
  IC50: 10000 nM
Jurkat [4]
  viability at 10 µM: 52.1%
MCF7 [5]
  viability at 10 µM: 34.6%

## Cn1c(-c2cn(C)c3ccccc23)cnc1-c1cn(C)c2cc(Br)ccc12 [N-METHYL NORTOPSENTIN B]
P388
  IC50: 4500 to 20700 nM

## O=C(N/C=C/c1c[nH]c2ccc(Br)cc12)C(=O)c1c[nH]c2c(O)cccc12
DU-145
  IC50: 7600 nM

## O=C(N/N=C/c1c[nH]c2ccc(Br)cc12)C(=O)c1c[nH]c2ccccc12
MCF7 [6]
  IC50: 3300 nM
MDA-MB-231 [1]
  viability at 10 µM: 34%
HCT-116 [7]
  IC50: 6600 nM
BT-474 [2]
  viability at 10 µM: 82.4%
HCT-116 [3]
  viability at 10 µM: 26.3%
Jurkat [9]
  fold change (FC): 2 - 5
Jurkat [8]
  IC50: 5000 nM
MDA-MB-231 [10]
  IC50: 5600 nM
Jurkat [4]
  viability at 10 µM: 25.5%
MCF7 [5]
  viability at 10 µM: 35%

## COc1ccc2c(/C=N/NC(=O)C(=O)c3c[nH]c4ccc(Br)cc34)c[nH]c2c1
MDA-MB-231 [1]
  viability at 10 µM: 112%
BT-474 [2]
  viability at 10 µM: 92%
HCT-116 [3]
  viability at 10 µM: 71.4%
Jurkat [4]
  viability at 10 µM: 74.1%
MCF7 [5]
  viability at 10 µM: 91.4%

## O=C(N/C=C/c1c[nH]c2cc(Br)ccc12)C(=O)c1c[nH]c2ccccc12
DU-145
  IC50: 7600 nM

## O=C(N/C=C/c1c[nH]c2ccccc12)C(=O)c1c[nH]c2ccccc12
DU-145
  IC50: 7600 nM

## COc1cccc2c1C(=O)c1c(O)c3c(c(O)c1C2=O)C[C@@](O)(C(=O)CO)C[C@@H]3O[C@H]1C[C@H](N)[C@H](O)[C@H](C)O1 [DOXORUBICIN]
MDA-MB-231 [1]
  viability at 10 µM: 22.5%
BT-474 [2]
  viability at 10 µM: 17.6%
HCT-116 [3]
  viability at 10 µM: 25%
Jurkat [8]
  IC50: 260 nM
MDA-MB-231 [10]
  IC50: 550 nM
Jurkat [4]
  viability at 10 µM: 21%
MCF7 [5]
  viability at 10 µM: 27%
BT-474 [11]
  IC50: 300 nM

## CN1CC(c2c[nH]c3cc(Br)ccc23)N(C)CC1c1c[nH]c2cc(Br)ccc12 (stereo not drawn)
MDA-MB-231 [12]
  IC50: 1000 to 10000 nM
A549
  IC50: 1000 to 10000 nM
HCT-8
  IC50: 1000 to 10000 nM
P388
  IC50: 15000 nM

## COc1ccc2[nH]cc(/C=N/NC(=O)C(=O)c3c[nH]c4ccccc34)c2c1
MCF7 [6]
  IC50: 1800 nM
MDA-MB-231 [1]
  viability at 10 µM: 21.6%
HCT-116 [7]
  IC50: 400 nM
BT-474 [2]
  viability at 10 µM: 20.3%
HCT-116 [3]
  viability at 10 µM: 17.6%
Jurkat [9]
  fold change (FC): 2 - 5
Jurkat [8]
  IC50: 500 nM
MDA-MB-231 [10]
  IC50: 1700 nM
Jurkat [4]
  viability at 10 µM: 19.3%
MCF7 [5]
  viability at 10 µM: 17.2%
BT-474 [11]
  IC50: 1100 nM

## O=C(N/N=C/c1c[nH]c2ccccc12)C(=O)c1cn(Cc2ccc(Cl)cc2)c2ccccc12
HCT-116 [13]
  Activity: 20 to 25%
MCF7 [6]
  IC50: 800 nM
MDA-MB-231 [1]
  viability at 10 µM: 17.1%
HCT-116 [7]
  IC50: 150 nM
BT-474 [2]
  viability at 10 µM: 22.5%
[14]
  IC50: 600 nM
Sus scrofa [15]
  inhibition: Dose-dependent effect
HCT-116 [3]
  viability at 10 µM: 13.3%
Jurkat [9]
  fold change (FC): 2 - 5
MDA-MB-231 [16]
  Activity: 20 to 25%
MCF7 [17]
  Activity: Active
Jurkat [8]
  IC50: 220 nM
MDA-MB-231 [10]
  IC50: 500 nM
Sus scrofa [18]
  inhibition: 50%
Jurkat [4]
  viability at 10 µM: 20.6%
Jurkat [19]
  Activity: 20 to 25%
Capra hircus
  inhibition: Dose-dependent effect
MCF7 [5]
  viability at 10 µM: 15%
MCF7 [20]
  Activity: 20 to 25%
BT-474 [21]
  Activity: 20 to 25%
BT-474 [11]
  IC50: 2100 nM

## O=C(N/N=C/c1c[nH]c2ccccc12)C(=O)c1c[nH]c2ccccc12
MDA-MB-231 [1]
  viability at 10 µM: 98.6%
BT-474 [2]
  viability at 10 µM: 83%
HCT-116 [3]
  viability at 10 µM: 88.4%
Jurkat [4]
  viability at 10 µM: 33.6%
MCF7 [5]
  viability at 10 µM: 99.2%

## COc1ccc(/C=N/NC(=O)C(=O)c2c[nH]c3ccccc23)cc1
MDA-MB-231 [1]
  viability at 10 µM: 102%
BT-474 [2]
  viability at 10 µM: 97.5%
HCT-116 [3]
  viability at 10 µM: 101%
Jurkat [4]
  viability at 10 µM: 61.9%
MCF7 [5]
  viability at 10 µM: 106%

## O=C1N=C(C(=O)c2c[nH]c3ccccc23)N/C1=C\c1c[nH]c2cc(O)ccc12
[22]
  IC50: 7400 nM
[23]
  IC50: 12500 nM

— ChEMBL document CHEMBL4138086, “Design and synthesis of bis(indolyl)ketohydrazide-hydrazones: Identification of potent and selective novel tubulin inhibitors” (Eur J Med Chem, 2017)
